According to US8722849B2, “Polypeptides” (Novo Nordisk A/S, priority 2011, dated 2014):
Starred links: 1 amine or outer side, 2 acyl side, 3 side chain; linkers in the order of their positions; H or OH if unused. Positions of bridges follow the written chain, without caps; N, C: chain ends. Residues, ends and D or L forms follow the SMILES beside them. *: point of attachment. C20 diacid = O=C(O)CCCCCCCCCCCCCCCCCCC(=O)*; C18 diacid = O=C(O)CCCCCCCCCCCCCCCCC(=O)*; γGlu = O=C(O)[C@H](CCC(=O)[*:2])N[*:1]

Key:
[1] = Assay (IX) pK, determination of T½ in mini-pig; assay type: in vivo, Göttingen mini-pigs; conditions: male, Göttingen, iv, 2 nmol/kg; minipig; plasma terminal half-life
food intake = assay: Assay (I) efficacy testing on appetite (food intake), ad libitum fed rat model; assay type: in vivo, Sprague Dawley (SD) rats; conditions: 3 nmol/kg
Procedure, shortened: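 Food consumption was logged per animal every hour up to 7 h and again at 24 h (occasionally 48 h) after a single 0.01–3 mg/kg dose, given sc, po or ip at dark-phase onset. Ad libitum fed SD rats, 200–250 g, kept on inverted light/dark cycle; vehicle group included, outliers removed by Grubbs test.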

For CC[C@H](C)[C@H](NC(=O)[C@@H]1CCCN1C(=O)CNC(=O)[C@H](Cc1ccccc1)NC(=O)[C@H](CC(N)=O)NC(=O)[C@H](CC(N)=O)NC(=O)[C@H](CO)NC(=O)[C@H](CO)NC(=O)[C@H](Cc1c[nH]cn1)NC(=O)[C@H](Cc1c[nH]cn1)NC(=O)[C@H](CC(C)C)NC(=O)[C@H](Cc1ccccc1)NC(=O)[C@H](CCC(=O)O)NC(=O)[C@H](C)NC(=O)[C@H](CC(C)C)NC(=O)[C@H](CCCNC(=N)N)NC(=O)[C@H](CCC(N)=O)NC(=O)[C@@H](NC(=O)[C@H](C)NC(=O)[C@@H]1CSSC[C@H](NC(=O)[C@H](CCCCN)NC(=O)CC[C@H](NC(=O)CCCCCCCCCCCCCCCCC(=O)O)C(=O)O)C(=O)N[C@@H](CC(N)=O)C(=O)N[C@@H]([C@@H](C)O)C(=O)N[C@@H](C)C(=O)N[C@@H]([C@@H](C)O)C(=O)N1)[C@@H](C)O)C(=O)N[C@@H](CC(C)C)C(=O)N1CCC[C@H]1C(=O)N1CCC[C@H]1C(=O)N[C@H](C(=O)N[C@@H](CC(N)=O)C(=O)N[C@H](C(=O)NCC(=O)N[C@@H](CO)C(=O)N[C@@H](Cc1c[nH]cn1)C(=O)N[C@H](C(=O)N[C@@H](Cc1ccc(O)cc1)C(N)=O)[C@@H](C)O)C(C)C)[C@@H](C)O [Example 59, N-alpha-[(S)-4-Carboxy-4-(17-carboxyheptadecanoylamino)butyryl]-[Glu14,His17,His35]-pramlintide] ({C18 diacid-γGlu}-KCNTATCATQRLAEFLHHSSNNFGPILPPTNVGSHTY-NH2; disulfide 2-7 (inferred)), the half-life [1] was 59 h, the “Food intake reduction 0-24 h 3 nmol/kg (%)” value (food intake) was 59% and the “Food intake reduction 24-48 h 3 nmol/kg (%)” value (food intake) was 27%.
In the case of CC[C@H](C)[C@H](NC(=O)[C@@H]1CCCN1C(=O)CNC(=O)[C@H](Cc1ccccc1)NC(=O)[C@H](CC(N)=O)NC(=O)[C@H](CC(N)=O)NC(=O)[C@H](CO)NC(=O)[C@H](CO)NC(=O)[C@H](Cc1c[nH]cn1)NC(=O)[C@H](Cc1c[nH]cn1)NC(=O)[C@H](CC(C)C)NC(=O)[C@H](Cc1ccccc1)NC(=O)[C@H](CCC(=O)O)NC(=O)[C@H](C)NC(=O)[C@H](CC(C)C)NC(=O)[C@H](CCCNC(=N)N)NC(=O)[C@H](CCC(N)=O)NC(=O)[C@@H](NC(=O)[C@H](C)NC(=O)[C@@H]1CSSC[C@H](NC(=O)[C@H](CCCNC(=N)N)NC(=O)CC[C@H](NC(=O)CCCCCCCCCCCCCCCCCCC(=O)O)C(=O)O)C(=O)N[C@@H](CC(N)=O)C(=O)N[C@@H]([C@@H](C)O)C(=O)N[C@@H](C)C(=O)N[C@@H]([C@@H](C)O)C(=O)N1)[C@@H](C)O)C(=O)N[C@@H](CC(C)C)C(=O)N1CCC[C@H]1C(=O)N1CCC[C@H]1C(=O)N[C@H](C(=O)N[C@@H](CC(N)=O)C(=O)N[C@H](C(=O)NCC(=O)N[C@@H](CO)C(=O)N[C@@H](CC(N)=O)C(=O)N[C@H](C(=O)N1CCC[C@H]1C(N)=O)[C@@H](C)O)C(C)C)[C@@H](C)O [Example 96, N-alpha-[(S)-4-Carboxy-4-(19-carboxynonadecanoylamino)butyryl]-[Arg1,Glu14,His17,Pro37]-pramlintide] ({C20 diacid-γGlu}-RCNTATCATQRLAEFLHHSSNNFGPILPPTNVGSNTP-NH2; disulfide 2-7 (inferred)), the half-life [1] was 107 h, the “Food intake reduction 0-24 h 3 nmol/kg (%)” value (food intake) was 69% and the “Food intake reduction 24-48 h 3 nmol/kg (%)” value (food intake) was 89%.
